Data reported in US8362051B2, “Mold-resistant wallboard” (Rohm and Haas Company, priority 2007, dated 2013).

Assays:
Type in all cases: cell-based
[1] = test system: mold; experiment: ASTM-G21 Fungal Resistant Test Method on paper handsheets; design: key: 0: None; Traces of growth (<10%); 2: Light growth (10-30%); Medium growth (30-60%); 4: Heavy growth (60-complete coverage); conditions: for Mold Resistance Rating Week 1 A / Mold Resistance Rating Week 2 A: replicate A; for Mold Resistance Rating Week 1 B / Mold Resistance Rating Week 2 B: replicate B
Experimental: Results are compared with paper hand sheets incorporating DIMTS in the same manner, as well as handsheets with no biocide added. Handsheets are formed using a commercial handsheet mold which makes sheets 8×8 inches in area. The weights of the handsheets are 11-12 lbs/1000 ft^2 representing the typical basis weight of just the liner (outer facing plys) of the multi-ply wallboard paper. The 3:1 carbendazim/IPBC blend is added to the paper slurry (0.7 wt %) prior to forming the handsheets. Recycled news print paper is used as the source of fiber for handsheets. High Performance Liquid Chromatography (HPLC) is used to determine the amount of biocide present in each sheet, however, this method is not capable of detecting the levels of IPBC in the handsheets, therefore only carbendazim values are reported in Table 4 as weight of active (mg) per kg of paper. The handsheets are evaluated for fungal resistance using ASTM G21 over a two-week test period. A and B represent replicate analyses of same handsheet in Table 4.

[2] = test system: mold; experiment: TAPPI T-487 fungal efficacy test on paper sheets, biocide added to pulp slurry; design: key: coverage; 8: 20% mold coverage; 9: 10% mold coverage; 10: no mold growth; conditions: average of three sheets
Experimental: (§1) The biocides can be evaluated in the following examples by adding to a 0.4 wt % pulp slurry in water (100% recycle) typically used for gypsum wallboard facing paper. The slurry is filtered through a screen to drain the water from the stock and the resulting paper mat is blotted, couched, and dried to form a paper sheet with a basis weight of approximately 40 lb/1000 ft2. Three sheets per condition are prepared. High Performance Liquid Chromatography (HPLC) is used to determine the amount of biocide present in each sheet. The paper sheets are evaluated for fungal growth via ASTM 3273, currently the industry standard for mold-resistant wallboard, as well as the standard TAPPI T-487 fungal efficacy test.
(§2) The values in Tables 1 and 2 below represent data from samples made substantially according to the preceding protocol. The average concentration of active biocide in the paper and the average test rating based on three paper sheets are shown. Based on tables 1 and 2, approximately 4-4.5 times more DIMTS active was needed in the paper sheet than OIT before no mold growth was observed throughout the entire testing period.
(§3) For ASTM 3273, a 4-week test, the following rating scale applies: • 0—100% mold coverage • 1—90% mold coverage • 2—80% mold coverage • 3—70% mold coverage • 4—60% mold coverage • 5—50% mold coverage • 6—40% mold coverage • 7—30% mold coverage • 8—20% mold coverage • 9—10% mold coverage • 10—no mold growth For TAPPI T-487, a 3-week test, the following rating scale applies: • 0—no mold growth • 1—25% mold coverage • 2—50% mold coverage • 3—75% mold coverage • 4—100% mold coverage

[3] = test system: mold; experiment: TAPPI T-487 test on surface-treated paper; design: key to TAPPI T-487 rating Week 1 / TAPPI T-487 rating Week 2 / TAPPI T-487 rating Week 3: 100% mold coverage; 1: 90% mold coverage; 2: 80% mold coverage; 3: 70% mold coverage; 4: 60% mold coverage; 50% mold coverage; 6: 40% mold coverage; 7: 30% mold coverage; 8: 20% mold coverage; 9: 10% mold coverage; 10: no mold growth; conditions: surface treatment, average of three sheets
Experimental: The papers of this example were prepared via surface treatment. The values in Table 3 below represent the average concentration of active biocide in the paper and the average […]-487 test rating based on three paper sheets.

[4] = test system: mold; experiment: ASTM 3273 fungal growth test on paper sheets, biocide added to pulp slurry; design: key to ASTM 3273 rating Week 1: 0: 100% mold coverage; 1: 90%; 2: 80%; 3: 70%; 4: 60%; 5: 50%; 6: 40%; 7: 30%; 8: 20%; 9: 10%; 10: no mold growth coverage; 8: 20% mold coverage; 9: 10% mold coverage; 10: no mold growth; key to ASTM 3273 rating Week 2 / ASTM 3273 rating Week 3 / ASTM 3273 rating Week 4: 100% mold coverage; 1: 90% mold coverage; 2: 80% mold coverage; 3: 70% mold coverage; 4: 60% mold coverage; 50% mold coverage; 6: 40% mold coverage; 7: 30% mold coverage; 8: 20% mold coverage; 9: 10% mold coverage; 10: no mold growth; conditions: for ASTM 3273 rating Week 1 / ASTM 3273 rating Week 2 / ASTM 3273 rating Week 3 / ASTM 3273 rating Week 4: average of three sheets
Experimental: as §1, §2, §3

**Q.** For `Cc1ccc(S(=O)(=O)C(I)I)cc1` [DIMTS, diiodomethyltolylsulfone], which “Mold Resistance Rating Week 1 A” value ([1]; 281 ppm active in handsheet) is on record?
**A.** 1 (Traces of growth (<10%))

**Q.** What about the “Mold Resistance Rating Week 1 B” value ([1]; 281 ppm active in handsheet) of the same molecule?
**A.** 1 (Traces of growth (<10%))

**Q.** And the “Mold Resistance Rating Week 2 A” value ([1]; 281 ppm active in handsheet)?
**A.** 4 (Heavy growth (60-complete coverage))

**Q.** And the “Mold Resistance Rating Week 2 B” value ([1]; 281 ppm active in handsheet)?
**A.** 4 (Heavy growth (60-complete coverage))

**Q.** And the “Mold Resistance Rating Week 1 A” value ([1]; 297 ppm active in handsheet)?
**A.** 1 (Traces of growth (<10%))

**Q.** And the “Mold Resistance Rating Week 1 B” value ([1]; 297 ppm active in handsheet)?
**A.** 1 (Traces of growth (<10%))

**Q.** And the “Mold Resistance Rating Week 2 A” value ([1]; 297 ppm active in handsheet)?
**A.** 4 (Heavy growth (60-complete coverage))

**Q.** What about the “Mold Resistance Rating Week 2 B” value ([1]; 297 ppm active in handsheet) of the same molecule?
**A.** 4 (Heavy growth (60-complete coverage))

**Q.** And the “Mold Resistance Rating Week 1 A” value ([1]; 354 ppm active in handsheet)?
**A.** 0

**Q.** What about the “Mold Resistance Rating Week 1 B” value ([1]; 354 ppm active in handsheet) of the same molecule?
**A.** 0

**Q.** What about the “Mold Resistance Rating Week 2 A” value ([1]; 354 ppm active in handsheet) of the same molecule?
**A.** 1 (Traces of growth (<10%))

**Q.** And the “Mold Resistance Rating Week 2 B” value ([1]; 354 ppm active in handsheet)?
**A.** 1 (Traces of growth (<10%))

**Q.** And the “Mold Resistance Rating Week 1 A” value ([1]; 732 ppm active in handsheet)?
**A.** 0

**Q.** What about the “Mold Resistance Rating Week 1 B” value ([1]; 732 ppm active in handsheet) of the same molecule?
**A.** 0

**Q.** What about the “Mold Resistance Rating Week 2 A” value ([1]; 732 ppm active in handsheet) of the same molecule?
**A.** 0

**Q.** What about the “Mold Resistance Rating Week 2 B” value ([1]; 732 ppm active in handsheet) of the same molecule?
**A.** 0

**Q.** What about the “Mold Resistance Rating Week 1 A” value ([1]; 748 ppm active in handsheet) of the same molecule?
**A.** 0

**Q.** What about the “Mold Resistance Rating Week 1 B” value ([1]; 748 ppm active in handsheet) of the same molecule?
**A.** 0

**Q.** And the “Mold Resistance Rating Week 2 A” value ([1]; 748 ppm active in handsheet)?
**A.** 0

**Q.** What about the “Mold Resistance Rating Week 2 B” value ([1]; 748 ppm active in handsheet) of the same molecule?
**A.** 0

**Q.** And the “TAPPI T-487 rating Week 1” value ([2]; 386 ppm in paper sheet)?
**A.** 0

**Q.** And the “TAPPI T-487 rating Week 2” value ([2]; 386 ppm in paper sheet)?
**A.** 2 (50% mold coverage)

**Q.** And the “TAPPI T-487 rating Week 3” value ([2]; 386 ppm in paper sheet)?
**A.** 3 (75% mold coverage)

**Q.** And the “TAPPI T-487 rating Week 1” value ([2]; 553 ppm in paper sheet)?
**A.** 0

**Q.** What about the “TAPPI T-487 rating Week 2” value ([2]; 553 ppm in paper sheet) of the same molecule?
**A.** 2 (50% mold coverage)

**Q.** And the “TAPPI T-487 rating Week 3” value ([2]; 553 ppm in paper sheet)?
**A.** 3 (75% mold coverage)

**Q.** What about the “TAPPI T-487 rating Week 1” value ([2]; 855 ppm in paper sheet) of the same molecule?
**A.** 0

**Q.** And the “TAPPI T-487 rating Week 2” value ([2]; 855 ppm in paper sheet)?
**A.** 0

**Q.** And the “TAPPI T-487 rating Week 3” value ([2]; 855 ppm in paper sheet)?
**A.** 0

**Q.** And the “TAPPI T-487 rating Week 1” value ([3]; 43 ppm in paper)?
**A.** 2 (50% mold coverage)

**Q.** What about the “TAPPI T-487 rating Week 2” value ([3]; 43 ppm in paper) of the same molecule?
**A.** 4 (100% mold coverage)

**Q.** What about the “TAPPI T-487 rating Week 3” value ([3]; 43 ppm in paper) of the same molecule?
**A.** 4 (100% mold coverage)

**Q.** What about the “TAPPI T-487 rating Week 1” value ([3]; 563 ppm in paper) of the same molecule?
**A.** 0

**Q.** And the “TAPPI T-487 rating Week 2” value ([3]; 563 ppm in paper)?
**A.** 0

**Q.** What about the “TAPPI T-487 rating Week 3” value ([3]; 563 ppm in paper) of the same molecule?
**A.** 0

**Q.** What about the “TAPPI T-487 rating Week 1” value ([3]; 5389 ppm in paper) of the same molecule?
**A.** 0

**Q.** What about the “TAPPI T-487 rating Week 2” value ([3]; 5389 ppm in paper) of the same molecule?
**A.** 0

**Q.** What about the “TAPPI T-487 rating Week 3” value ([3]; 5389 ppm in paper) of the same molecule?
**A.** 0

**Q.** And the “ASTM 3273 rating Week 1” value ([4]; 370 ppm in paper sheet)?
**A.** 10

**Q.** What about the “ASTM 3273 rating Week 2” value ([4]; 370 ppm in paper sheet) of the same molecule?
**A.** 8 (20% mold coverage)

**Q.** And the “ASTM 3273 rating Week 3” value ([4]; 370 ppm in paper sheet)?
**A.** 0 (100% mold coverage)

**Q.** What about the “ASTM 3273 rating Week 4” value ([4]; 370 ppm in paper sheet) of the same molecule?
**A.** 0 (100% mold coverage)

**Q.** And the “ASTM 3273 rating Week 1” value ([4]; 660 ppm in paper sheet)?
**A.** 10

**Q.** What about the “ASTM 3273 rating Week 2” value ([4]; 660 ppm in paper sheet) of the same molecule?
**A.** 8 (20% mold coverage)

**Q.** And the “ASTM 3273 rating Week 3” value ([4]; 660 ppm in paper sheet)?
**A.** 7 (30% mold coverage)

**Q.** And the “ASTM 3273 rating Week 4” value ([4]; 660 ppm in paper sheet)?
**A.** 6 (40% mold coverage)

**Q.** What about the “ASTM 3273 rating Week 1” value ([4]; 1272 ppm in paper sheet) of the same molecule?
**A.** 10

**Q.** And the “ASTM 3273 rating Week 2” value ([4]; 1272 ppm in paper sheet)?
**A.** 10

**Q.** What about the “ASTM 3273 rating Week 3” value ([4]; 1272 ppm in paper sheet) of the same molecule?
**A.** 10

**Q.** And the “ASTM 3273 rating Week 4” value ([4]; 1272 ppm in paper sheet)?
**A.** 10

**Q.** And the “DIMTS active needed in the paper sheet relative to OIT before no mold growth was observed throughout the entire testing period” value ([4]; approximately, based on tables 1 and 2 (ASTM 3273 and TAPPI T-487))?
**A.** 4-4.5 times
